Assay results reported in PMC12445440 (Journal of Medical Virology, 2025).

Key:
ZIKV^Br [1] = experiment: Virus yield reduction assay, ZIKV^Br on Huh-7 cells; assay type: cell-based, Zika virus
BVDV = conditions: previously published data; Na = no detected antiviral activity; ref [18]-[22] of main text, [3] of supplement for PS1086, PS1100, PS1101; cited from earlier work
Vero76 = tested on: Vero76; design: method as in earlier work; conditions: previously published data; ref [18]-[22] of main text, [3] of supplement for PS1086, PS1100, PS1101; cited from earlier work
[2] = Cytotoxicity by WST-8, uninfected Huh-7 cells; conditions: human
ZIKV^Br [3] = experiment: Virus yield assay, ZIKV^Br on VeroE6 cells; assay type: cell-based; conditions: Zika virus, Vero C1008, 95% CI in brackets
ZIKV^Br [4] = experiment: Virus yield assay, ZIKV^Br on Vero TMPRSS cells; assay type: cell-based; conditions: Zika virus, 95% CI in brackets
ZIKV^Br [5] = experiment: Virus yield assay, ZIKV^Br on HMC3 cells; assay type: cell-based; conditions: Zika virus
ZIKV^Br [6] = experiment: Virus yield assay, ZIKV^Br on C6/36 cells; assay type: cell-based; conditions: Zika virus, 95% CI in brackets
ZIKV^Br [7] = experiment: Virus yield assay, ZIKV^Br on A549 cells; assay type: cell-based; conditions: Zika virus, 95% CI in brackets
[8] = Cytotoxicity by WST-8, VeroE6 cells; assay type: cell-based; conditions: simian, 95% CI in brackets
Procedure: (§1) Cytotoxic/cytostatic effects were evaluated in uninfected cells by WST‐8 (Orangu, Cell Guidance Systems): 1 × 10^4 cells/well in a 96‐well plate were incubated in the presence of threefold serial dilutions of compounds, from 0.30 to 218 μM, for 48 h. Medium was replaced with 50 μL of 10% WST‐8, in DMEM, 2% FBS. Following a 1‐h incubation at 37°C, optical density (OD) in wells was measured at 450 nm using Varioskan LUX (ThermoFisher Scientific). CC50 was calculated using the formula: %viability=100×(ODcompound/ODuntreated control) where ODcompound and ODuntreated are the OD of the cells treated with compound or DMSO, respectively.

[9] = Cytotoxicity by WST-8, HMC3 cells; assay type: cell-based; conditions: human, 95% CI in brackets
Procedure: as §1

[10] = Cytotoxicity by WST-8, C6/36 cells; assay type: cell-based; conditions: Aedes albopictus, 95% CI in brackets
Procedure: as §1

[11] = Cytotoxicity by WST-8, A549 cells; assay type: cell-based; conditions: human, 95% CI in brackets
Procedure: as §1

ZIKV^Ug = experiment: microbe, parasite or virus in culture; assay type: cell-based; conditions: Zika virus; ZIKV^Ug (Huh-7); 95% CI in brackets
USUV = experiment: microbe, parasite or virus in culture; assay type: cell-based; conditions: Usutu virus; USUV (Huh-7); 95% CI in brackets
WNV = experiment: microbe, parasite or virus in culture; assay type: cell-based; conditions: West Nile virus; WNV (Huh-7); 95% CI in brackets
SARS-CoV-2^Mi = experiment: microbe, parasite or virus in culture; assay type: cell-based; conditions: Severe acute respiratory syndrome coronavirus 2; SARS-CoV-2^Mi (Vero TMPRSS); 95% CI in brackets
CVB5 = experiment: Plaque reduction assay, CVB5 on A549 cells; assay type: cell-based, Coxsackievirus B5; conditions: Enterovirus B, 95% CI in brackets
CHIKV = experiment: Plaque reduction assay, CHIKV on Huh-7 cells; assay type: cell-based; conditions: Chikungunya virus, CHIKV (Huh-7), 95% CI in brackets
VSV = experiment: microbe, parasite or virus in culture; assay type: cell-based; conditions: Vesicular stomatitis virus, Huh-7
VV-IND-G = experiment: microbe, parasite or virus in culture; assay type: cell-based, Vaccinia virus recombinant for VSV-Indiana G protein; conditions: Orthopoxvirus vaccinia, Huh-7
HSV2 = experiment: Plaque reduction assay, HSV2 on A549 cells; assay type: cell-based, herpes simplex virus 2; conditions: Human alphaherpesvirus 2
IAV = experiment: microbe, parasite or virus in culture; assay type: cell-based; conditions: Influenza A virus, MDCK
TOSV = experiment: Plaque reduction assay, TOSV on VeroE6 cells; assay type: cell-based; conditions: Toscana virus, Vero C1008
ZIKV NS5 [12] = experiment: ZIKV protein synthesis by western blot (NS5), Huh-7 cells; assay type: cell-based, Zika virus; conditions: MOI 1, 1x, 5x, 10x EC50 (PS1097 0.6, 3, 6 μM; SOF 1.5, 7.5, 15 μM), 48 h
Procedure: (§2) Immunoblotting was performed as described.
(§3) Viral protein levels in cell lysates were analyzed by immunoblotting (Figure 3A,B), while virion release was assessed by quantifying ZIKV RNA in supernatants (Figure 3C).
(§4) Impact of treatment on ZIKV protein synthesis was evaluated on cell extracts analyzed by western blot using anti‐ ZIKV NS5, or anti‐GAPDH as a housekeeping control.

ZIKV NS5 [13] = experiment: ZIKV protein synthesis by western blot (NS5), Vero E6 cells; assay type: cell-based, Zika virus; conditions: MOI 1, 1x, 5x, 10x EC50, 48 h
Procedure: as §2, §3, §4

ZIKV^Br [14] = experiment: Time-of-addition (TOA) experiments, ZIKV^Br in Huh-7 cells; assay type: cell-based, Zika virus; conditions: harvest 48 h p.i.; for Time of addition giving the strongest inhibition: Huh-7, ZIKV^Br MOI 1, 10x EC50 (PS1097 6 μM, SOF 15 μM)
Procedure: PS1097 was added at 6 μM at 0, 2, 6, 12, 24, and 36 h p.i. SOF was used as a reference compound at 15 μM. At 48 h p.i., viral proteins were determined by western blot or by qRT‐PCR in cell lysates.
To elucidate the mechanism of PS1097 antiviral action, TOA experiments were conducted (Figure 4A). ZIKV^Br replication kinetics was assessed by quantifying viral genomic RNA and protein inside Huh‐7 cells at the times p.i. shown in Figure 4A. Viral RNA was detectable as of ~12 h p.i. (Figure 4D), whereas viral protein was visible after 24 h p.i. (Figure 4B,C). In parallel, cells were exposed to viral inoculum for 2 h. […] Then, they were harvested at 48 h p.i. Viral RNA in cells was measured by qRT‐PCR and inhibition relative to DMSO‐treated cells was calculated, as described by (Figure 4G).
(§5) Figure 4 (A) Experimental design of the Time Of Addition (TOA) assay for PS1097 and SOF. (B) ZIKV replication kinetics was determined on Huh‐7 cells infected at MOI 1for 2 h by western blot cell lysates prepared at the times shown. ZIKV NS5 and GAPDH were monitored with the antibodies in Supporting Information: Table S1. (C) Quantitative analysis of the results in B). (D) qRT‐PCR quantification of ZIKV RNA was carried out in ZIKV‐infected cells lysed at the times indicated on the x axis. (E) western blot of lysates of Huh‐7 cells harvested at 48 h p.i. where treatment with PS1097 or SOF was started as by A). (F) Quantitative analysis of the results in E). (G) ZIKV RNA was quantified in lysates of cells harvested at 48 h p.i. where treatment with PS1097 (red line) or SOF (green line) was started at the times p.i. indicated on the x axis. (H) Combined antiviral activity of PS1097 with SOF against ZIKV. Huh‐7 cells were infected with ZIKV then treated with PS1097 or SOF, alone or in combination, at the indicated concentrations. After 48 h p.i., supernatants were harvested and titrated for ZIKV yield. Two‐dimensional representation of dose–response interaction matrix was determined in synergyfinder.org. Color gradient indicates viral yield inhibition score (red‐highest score). […]

ZIKV^Br [15] = experiment: Synergism between PS1097 and SOF, ZIKV^Br yield; assay type: cell-based, Zika virus
Procedure: as §5, with “score). (I) Three‐dimensional surface plot representing synergy score (Z axis) for each compound combination.” for “score).”

ZIKV^Br [16] = tested on: ZIKV^Br
in vitro = conditions: simian
RTN4 = experiment: Western blot of ER proteins in Huh-7 cells: RTN4; conditions: 6 μM PS1097, 48 h
FAM134B = experiment: Western blot of ER proteins in Huh-7 cells: FAM134B; conditions: 6 μM PS1097, 48 h
TMEM41B = experiment: Western blot of ER proteins in Huh-7 cells: TMEM41B; conditions: 6 μM PS1097, 48 h
Huh-7 cells = experiment: Cytotoxicity by WST-8, uninfected Huh-7 cells; conditions: read-out: CC50 Huh-7; Table S2, this paper data
[17] = Zika virus, Huh-7, 48 h, ZIKV^Br on Huh-7 cells, viral yield reduction, 48 h, 95% confidence interval in brackets
[18] = Zika virus, Huh-7, read-out: EC50 ZIKV, Table S2, this paper data, Huh-7 cells, Na = no detected antiviral activity

Cn1c(=O)c(-c2cccs2)nc2c(Cl)c3ncccc3cc21 [PS1240]
EC50 (ZIKV^Br [1]; [17]): 2.06 µM
EC50 (BVDV): 2 µM
CC50 (Vero76): > 100 µM
CC50 at 48 h [2]: 293 µM

CC(C)c1nc2cc3cccnc3c(Cl)c2[nH]c1=O [PS462]
EC50 (ZIKV^Br [1]; [17]): > 100 µM
EC50 (ZIKV^Br [1]; [18]): 100 µM
EC50 (BVDV): 5 µM
CC50 (Vero76): > 100 µM
CC50 at 48 h [2]: 294 µM

O=c1[nH]c2cc3cccnc3c(Cl)c2nc1-c1cccs1 [PS1097, 5‐chloro‐3‐(thiophen‐2‐yl) pyrido[2,3‐g] quinoxalin‐2(1H)‐one]
EC50 (ZIKV^Br [1]; ZIKV^Br on Huh-7 cells, viral yield reduction, 48 h, 95% confidence interval in brackets): 0.69 µM
EC50 (ZIKV^Br [1]; [17]): 0.6 µM
EC50 (ZIKV^Br [1]; Zika virus, Huh-7, summary value of the discussion for Flaviviruses, read-out: EC50 against Flaviviruses): ~0.7 µM
EC50 (ZIKV^Br [3]): 1.34 µM
EC50 (ZIKV^Br [4]): 2.66 µM
EC50 (ZIKV^Br [5]): > 100 µM
EC50 (ZIKV^Br [6]): 5.51 µM
EC50 (ZIKV^Br [7]): 44.6 µM
CC50 at 48 h ([8]; VeroE6 cells, VeroE6 cells (TOSV row of Table 2)): 575 µM
CC50 at 48 h ([8]; VeroE6 cells (ZIKV^Br row of Table 2)): 126 µM
CC50 at 48 h [9]: 294 µM
CC50 at 48 h [10]: 150 µM
CC50 at 48 h ([11]; A549 cells (CVB5 and HSV2 rows of Table 2)): 218 µM
CC50 at 48 h ([11]; A549 cells (ZIKV^Br row of Table 2)): 130 µM
EC50 (ZIKV^Ug): 1.29 µM
EC50 (USUV): 0.86 µM
EC50 (WNV): 1.15 µM
EC50 (SARS-CoV-2^Mi): 0.1 µM
EC50 (CVB5): 4.47 µM
EC50 (CHIKV): 4.4 µM
EC50 (VSV): > 50 µM
EC50 (VV-IND-G): 1.73 µM
EC50 (HSV2): > 50 µM
EC50 (IAV): > 50 µM
EC50 (TOSV): > 50 µM
ZIKV protein expression (NS5, western blot) (ZIKV NS5 [12]): downregulated viral protein expression
ZIKV protein content (NS5, western blot) (ZIKV NS5 [13]): consistently reduced protein levels
Time of addition up to which viral protein expression is suppressed (ZIKV^Br [14]; Huh-7, ZIKV^Br MOI 1, 10x EC50 (6 μM)): up to 12 h p.i.
Time of addition giving the strongest inhibition (ZIKV^Br [14]): 0–6 h p.i.
Interaction of PS1097 with SOF (synergy) (ZIKV^Br [15]; combined treatment PS1097 2.0–0.125 μM with SOF 5.0–0.39 μM, 48 h p.i., SynergyFinder): No synergistic effects
Interaction of PS1097 with SOF at the highest concentrations (ZIKV^Br [15]; combined treatment, highest concentrations (PS1097 up to 2 μM, SOF up to 5 μM)): slight antagonistic effect
Selection of resistant ZIKV variants (ZIKV^Br [16]; ZIKV^Br passaged weekly on Huh-7 from 0.6 μM PS1097, at least four attempts): no resistant strains
Passage at which no viral yield was found (ZIKV^Br [16]; ZIKV^Br passaged weekly on Huh-7 in the presence of PS1097): 9 passage
EC50 (BVDV): 5 µM
CC50 (Vero76): > 100 µM
CC50 (in vitro): 86.2 µM
CC50 (in vitro; CC50, Vero TMPRSS cells (SARS-CoV-2^Mi row of Table 2), 95% CI in brackets): 436 µM
CC50 at 48 h [2]: 229 µM
RTN4 protein content (western blot) (RTN4): virtually unchanged
FAM134B protein content (western blot) (FAM134B): virtually unchanged
TMEM41B protein content (western blot) (TMEM41B): virtually unchanged

O=c1nc(NO)ccn1[C@@H]1O[C@H](CO)[C@@H](O)[C@H]1O [EIDD-1931, β‐D‐N4‐hydroxycytidine, reference compound]
EC50 (ZIKV^Br [1]; Table S2, this paper data, Huh-7 cells, Na = no detected antiviral activity, read-out: EC50 ZIKV): 1.7 µM
CC50 (Huh-7 cells): 148 µM

CC(C)OC(=O)[C@H](C)N[P@](=O)(OC[C@H]1O[C@@H](n2ccc(=O)[nH]c2=O)[C@](C)(F)[C@@H]1O)Oc1ccccc1 [SOF, Sofosbuvir, reference compound]
EC50 (ZIKV^Br [1]; [17]): 1.5 µM
EC50 (ZIKV^Br [1]; [18]): 1.53 µM
ZIKV protein expression (NS5, western blot) (ZIKV NS5 [12]): completely abolished protein synthesis
ZIKV protein content (NS5, western blot) (ZIKV NS5 [13]): no effect on viral protein content
Time of addition giving the strongest inhibition (ZIKV^Br [14]): 0–6 h p.i.
CC50 at 48 h [2]: 282 µM

NC(=O)c1ncn([C@@H]2O[C@H](CO)[C@@H](O)[C@H]2O)n1 [RBV, 1‐(b‐D‐ribofuranosyl)‐1H‐1,2,4‐triazole‐3‐carboxamide, reference compound]
EC50 (ZIKV^Br [1]; Zika virus, ZIKV^Br on Huh-7 cells, viral yield reduction, 48 h, 95% confidence interval in brackets, read-out: EC50): 8.8 µM
CC50 at 48 h [2]: 144 µM
